According to patent publication US10537590B2, “Cyclic dinucleotide compounds” (BOEHRINGER INGELHEIM INTERNATIONAL GMBH, priority 2016, dated 2020):
Where a name gives a salt, the structure may show the parent alone.

Legend:
[1] = Mouse PK, plasma concentration after intravenous administration; format: in vivo; details: male C57BL/6NRj mouse, 10 μmol/Kg, mean of duplicate experiments
Description: The mouse PK of compounds of the invention was determined using the following method:
The compound was dissolved in a solution of physiological NaCl and administered intravenously to male C57BL/6NRj mouse at a dose of 10 μmol/Kg. A 20 μL blood sample was collected at 0.25, 0.5, 0.75, 1 and 2 h by taking ETDA as anticoagulant. Blood plasma was generated by centrifugation and stored at −20° C. The compound concentration was determined by LC-MS/MS.

[2] = biological target: Human STING (hSTING, residues 155-341, wild-type sequence) (Homo sapiens, UniProt Q86WV6, H232R); assay: Differential Scanning Fluorimetry (DSF), hSTING Tm shift; format: binding; details: 100 uM test compound, 3 uM target protein; for hSTING Tm shift: Sodium Salt
Sequence of Human STING (hSTING, residues 155-341, wild-type sequence) (Q86WV6 155-341 H232R): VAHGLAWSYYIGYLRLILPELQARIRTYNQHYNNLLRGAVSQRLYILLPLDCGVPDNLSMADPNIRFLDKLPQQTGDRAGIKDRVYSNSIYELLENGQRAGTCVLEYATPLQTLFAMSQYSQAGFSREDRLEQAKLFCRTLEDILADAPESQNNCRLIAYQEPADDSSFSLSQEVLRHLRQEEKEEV
Excerpt: The dissociation curves were processed in Bio-Rad CFX Manager. • Peak type was set to “negative”.

[3] = biological target: human STING protein in THP1-Blue ISG cells (Homo sapiens, UniProt Q86WV6, G230A/H232R/R293Q/R71H); assay: In vitro cytokine induction, THP1-Blue ISG IRF-inducible SEAP reporter assay; details: 24 hours incubation, OD at 620 nm
Sequence of human STING protein in THP1-Blue ISG cells (Q86WV6 whole entry R71H/G230A/H232R/R293Q): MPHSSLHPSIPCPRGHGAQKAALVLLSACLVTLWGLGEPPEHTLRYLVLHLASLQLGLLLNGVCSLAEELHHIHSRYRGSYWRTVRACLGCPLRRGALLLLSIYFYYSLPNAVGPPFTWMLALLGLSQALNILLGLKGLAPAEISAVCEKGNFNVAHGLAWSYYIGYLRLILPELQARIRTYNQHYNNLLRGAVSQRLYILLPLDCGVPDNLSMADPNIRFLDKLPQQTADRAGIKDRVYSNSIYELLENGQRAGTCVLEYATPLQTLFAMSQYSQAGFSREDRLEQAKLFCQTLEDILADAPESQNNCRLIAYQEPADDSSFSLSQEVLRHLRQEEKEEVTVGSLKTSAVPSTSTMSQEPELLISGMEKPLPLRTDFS
Description: In Vitro Cytokine Induction
Using Invivogen's QUANTI-Blue™ colorimetric enzyme assay and a suitable optical density (OD) reader the activity of SEAP can be detected and quantified.
Measurements of SEAP activity were performed in THP1-Blue ISG cells stably expressing the human STING protein and the IRF-inducible SEAP reporter construct. Cells were cultivated for expansion in RPM11640 medium with 10% fetal calf serum, 50 μg/ml Penicillin-Streptomycin, 100 μg/ml Zeocin, and 100 μg/ml Normocin in a 37°, 95% humidity and 5% CO2 incubator. Assay-ready cells were stored as frozen stocks In preparation for the assay, the cells thawed in Zeocin-/Normocin-free medium and were distributed into the assay plates with a density of 15000 cells/15 μL per well. Compounds were prepared by an 8 or 16 point serial dilution in 50% aqueous DMSO and a final dilution step into medium to ensure a final DMSO concentration of 0.5% in the assay. 5 μL of diluted compounds plus 5 μL medium were added to the plates, followed by a 24 hours incubation at 37° C.
At the day of the assay, 75 μl per well of Quanti-Blue reagent was added to all wells of the plate and the plate was incubated another 30 minutes at 37° C. The OD at 620 nm was measured on the EnVision reader (PerkinElmer).

| compound concentration in plasma, T = 0.25 h [1] | compound concentration in plasma, T = 0.5 h [1] | compound concentration in plasma, T = 0.75 h [1] | compound concentration in plasma, T = 1 h [1] | compound concentration in plasma, T = 2 h [1] | hSTING Tm shift [2] | EC50 [3] | ΔTm at 100 µM [2] | Compound |
| --- | --- | --- | --- | --- | --- | --- | --- | --- |
| 3.08 µM | 1.2 µM | 0.55 µM | 0.249 µM | 0.12 µM |  |  |  | Nc1ncnc2c1ncn2[C@@H]1O[C@@H]2COP(=O)(S)O[C@H]3C(n4cnc5c(=O)[nH]ncc54)O[C@H](COP(=O)(S)O[C@H]2[C@H]1O)[C@H]3O (single isomer, unassigned) [Example 1.1, Cyclic (imidazopyridazinon-β-D-ribofuranoside-(2′→5′)-phosphorothioate-adenosine-(3′→5′)-phosphorothioate)] |
| 1.97 µM | 0.699 µM | 0.401 µM | 0.241 µM | 0.078 µM |  |  |  | Nc1ncnc2c1ncn2[C@@H]1O[C@@H]2COP(=O)(S)O[C@@H]3[C@H](O)[C@@H](COP(=O)(S)O[C@H]2[C@H]1F)O[C@H]3n1cnc2c(=O)[nH]ncc21 (single isomer, unassigned) [Example 2.1, Cyclic (imidazopyridazinon-β-D-ribofuranoside-(2′→5′)-phosphorothioate-2′-F-2′-deoxyadenosine-(3′→5′)-phosphorothioate] |
|  |  |  |  |  |  | 8.5 µM | 9 °C | Nc1ncnc2c1ncn2[C@@H]1O[C@]23CO[C@@H]1[C@@H]2OP(=O)(S)OC[C@H]1O[C@@H](n2cnc4c(=O)[nH]ncc42)[C@H](OP(=O)(S)OC3)[C@@H]1O (single isomer, unassigned) [Example 3.2, Cyclic (imidazopyridazinon-β-D-ribofuranoside-(2′→5′)-phosphorothioate-LNA-adenine-(3′→5′)-phosphorothioate), Sodium Salt] |

More lines, now with the values behind:

| Compound | compound concentration in plasma, T = 0.25 h [1] | compound concentration in plasma, T = 0.5 h [1] | compound concentration in plasma, T = 0.75 h [1] | compound concentration in plasma, T = 1 h [1] | compound concentration in plasma, T = 2 h [1] | hSTING Tm shift [2] | EC50 [3] | ΔTm at 100 µM [2] |
| --- | --- | --- | --- | --- | --- | --- | --- | --- |
| Nc1ncnc2c1ncn2[C@@H]1O[C@]23CO[C@@H]1[C@@H]2OP(=O)(S)OC[C@H]1O[C@@H](n2cnc4c(=O)[nH]ncc42)[C@H](OP(=O)(S)OC3)[C@@H]1O (single isomer, unassigned) [Example 3.1, Cyclic (imidazopyridazinon-β-D-ribofuranoside-(2′→5′)-phosphorothioate-LNA-adenine-(3′→5′)-phosphorothioate), Sodium Salt] | 2.71 µM | 1.28 µM | 0.595 µM | 0.26 µM | 0.111 µM | 17.0 °C | 0.17 µM |  |
| O=c1[nH]ncc2c1ncn2[C@@H]1O[C@@H]2COP(=O)(S)O[C@H]3[C@@H](O)[C@H](n4cnc5cncnc54)O[C@@H]3COP(=O)(S)O[C@@H]1[C@@H]2O (single isomer, unassigned) [Example 4.1, Cyclic (imidazopyridazinon-β-D-ribofuranoside-(2′→5′)-phosphorothioate-purine-β-D ribofuranoside-(3′→5′)-phosphorothioate), Sodium Salt] |  |  |  |  |  |  | 0.19 µM | 13.9 °C |
| O=c1[nH]ncc2c1ncn2[C@@H]1O[C@@H]2COP(=O)(S)O[C@H]3[C@@H](O)[C@H](n4cnc5cncnc54)O[C@@H]3COP(=O)(S)O[C@@H]1[C@@H]2O (single isomer, unassigned) [Example 4.2, Cyclic (imidazopyridazinon-β-D-ribofuranoside-(2′→5′)-phosphorothioate-purine-β-D ribofuranoside-(3′→5′)-phosphorothioate), Sodium Salt] |  |  |  |  |  | 9.0 °C | 6.2 µM |  |
